From US7662593B2, “Activation method of protein derived from extremely thermophilic bacterium in nucleic acid amplification reaction and use thereof” (Aisin Seiki Kabushiki Kaisha, priority 2004, dated 2010)

How the values were obtained:
Assay type in all cases: biochemical
T. th. RecA [1] = target: T1, T. th. RecA (Thermus thermophilus, UniProt Q5SHB2); assay: PCR with rTaq-HS polymerase: influence of reaction solution composition on T. th. RecA performance, with and without ATP (Example 1); details: 400 μM ATP plus 0.4 μg T. th. RecA, rTaq buffer, 35 cycles, human genome DNA, Primer Sets 1-6; compared with T. th. RecA only
T1 construct: made in house
T1 sequence (Q5SHB2 1-340): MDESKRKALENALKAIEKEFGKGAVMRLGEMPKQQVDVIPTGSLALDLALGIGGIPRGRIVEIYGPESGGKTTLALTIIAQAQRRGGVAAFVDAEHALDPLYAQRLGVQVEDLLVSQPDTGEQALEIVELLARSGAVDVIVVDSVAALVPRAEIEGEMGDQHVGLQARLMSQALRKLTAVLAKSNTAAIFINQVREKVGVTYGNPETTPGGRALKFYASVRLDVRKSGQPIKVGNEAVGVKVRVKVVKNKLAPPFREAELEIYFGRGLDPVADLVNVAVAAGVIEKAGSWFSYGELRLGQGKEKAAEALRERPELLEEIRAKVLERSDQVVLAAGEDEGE
Protocol: The PCR amplification reaction was carried out using a human genome DNA as a template and Primer Set 1. Four kinds of PCR reaction solution were prepared as shown below. Specifically, Reaction solution A was prepared by using 1×rTaq buffer (manufactured by Takara Bio Inc.) as a buffer solution, and Reaction solution B was prepared by adding T. th. RecA further to Reaction solution A. Reaction solution C was prepared by using Taq buffer (manufactured by Takara Bio Inc.) as a buffer solution and adding T. th. RecA. Reaction solution D was prepared by adding T. th. RecA and ATP further to Reaction solution A. The composition of each of the reaction solutions is as shown below. As a DNA polymerase, an rTaq-HS polymerase (manufactured by Takara Bio Inc.) was used.
The above reaction solutions were thermally denatured at 94° C. for 30 seconds. Thereafter, the amplification reaction was carried out with 35 cycles (1 cycle: at 94° C. for 15 seconds, at 55° C. for 30 seconds and at 72° C. for 90 seconds). Thereafter, the amplification reaction was completed by the final reaction cycle at 72° C. for 3 minutes and at 4° C. for 10 minutes. After the amplification, 10 μl of the reaction solution was subjected to electrophoresis with 1.2% agarose gel. After the electrophoresis, the bands were visualized by staining the gel with ethidium bromide, and then the electrophoresis gel was photographed. […]

T. th. RecA [2] = target: T1, T. th. RecA; assay: PCR with rTaq-HS polymerase over 28, 32 or 36 cycles: decrease in T. th. RecA performance, with and without ATP (Example 2); details: 400 μM ATP plus 0.4 μg T. th. RecA, Taq buffer, 28, 32 or 36 cycles, Primer Sets 7-9; compared with T. th. RecA only
Protocol: The PCR amplification reaction was carried out using a human genome DNA as a template and Primer Set 7. Two kinds of PCR reaction solution were prepared as shown below. Specifically, Reaction solution E was prepared by adding T. th. RecA only. Reaction solution F was prepared by adding ATP in addition to T. th. RecA. The composition of each of the reaction solutions is as shown below. As a DNA polymerase, an rTaq-HS polymerase was used.
(§1) The above reaction solutions were thermally denatured at 94° C. for 30 seconds. Thereafter, the amplification reaction was conducted in 28, 32 or 36 cycles (1 cycle: at 94° C. for 15 seconds, at 55° C. for 30 seconds and at 72° C. for 90 seconds). And Thereafter, the amplification reaction was completed by the final reaction cycle at 72° C. for 3 minutes and at 4° C. for 10 minutes. After the amplification, 10 μl of the reaction solution was subjected to electrophoresis with 1.2% agarose gel. After the electrophoresis, the bands were visualized by staining the gel with ethidium bromide, and then the electrophoresis gel was photographed. Furthermore, the same experiment was conducted using Primer Sets 8 and 9.

T. th. RecA [3] = target: T1, T. th. RecA; assay: PCR with Ex Taq-HS polymerase with T. th. RecA and ATP (Example 3); details: 400 μM ATP plus 0.4 μg T. th. RecA, 36 cycles, Primer Sets 1-6 and 8, compared with no addition
Protocol: The PCR amplification reaction was carried out using a human genome DNA as a template and Primer Set 1. Two kinds of PCR reaction solutions were prepared as shown below. Specifically, Reaction solution G was prepared with a composition of a general PCR reaction solution without adding any of T. th. RecA and ATP (Control). Reaction solution H was prepared by adding T. th. RecA and ATP further to Reaction solution G. The composition of each of the reaction solutions is as shown below. As a DNA polymerase, an Ex Taq-HS polymerase was used.
as §1, with “carried out with” for “conducted in 28, 32 or”, “seconds).” for “seconds). And”, “2, 3, 4, 5, 6” for “8”, “8.” for “9.”

T. th. RecA [4] = target: T1, T. th. RecA; assay: PCR with rTaq-HS polymerase with various nucleotide 5'-triphosphates and T. th. RecA (Example 4); details: 36 cycles; for non-specific amplification in PCR (agarose gel): rTaq buffer
Protocol: The PCR amplification reaction was carried out using a human genome DNA as a template and Primer Set 1. Seven kinds of PCR reaction solution were prepared as shown below. Specifically, Reaction solution I was a general PCR reaction solution and prepared without adding any of T. th. RecA and nucleotide 5′-triphosphate (Control). Reaction solution J was prepared by adding T. th. RecA to Reaction solution I. Reaction solutions K, L, M and N were prepared by adding GTP, ATP, UTP and CTP to Reaction solution J, respectively. Reaction solution O was prepared by adding only ATP to Reaction solution I without adding T. th. RecA. The composition of each of the reaction solutions is as shown below. As a DNA polymerase, an rTaq-HS polymerase was used.
as §1, with “carried out with” for “conducted in 28, 32 or”, “seconds).” for “seconds). And”, “2, 3, 4, 5, 6” for “8”, “8.” for “9.”

T. th. RecA [5] = target: T1, T. th. RecA; assay: PCR with ExTaq-HS polymerase, effects of primer length, Primer Sets 10-15 (Example 5); details: 0.4 mM ATP plus 0.4 μg T. th. RecA, 35 cycles, primer base length 20 to 45 (Primer Sets 10-15)
Protocol: The PCR amplification reaction was carried out using a human genome DNA as a template and the primer sets of various lengths. The primer sets used here were Primer Sets 10, 11, 12, 13, 14 and 15 with the base length of 20, 25, 30, 35, 40 and 45, respectively. Two kinds of PCR reaction solution were prepared as shown below. Specifically, Reaction solution P was prepared by adding T. th. RecA and ATP. Reaction solution Q was prepared similarly to Reaction solution P except that ATP was not added. The composition of each of the reaction solutions is as shown below. As a DNA polymerase, an ExTaq-HS polymerase (manufactured by Takara Bio Inc.) was used.
The above reaction solutions were thermally denatured at 94° C. for 30 seconds. Thereafter, the amplification reaction was carried out with 35 cycles (1 cycle: at 94° C. for 15 seconds, at 55° C. for 30 seconds and at 72° C. for 90 seconds). Thereafter, the amplification reaction was completed by the final reaction cycle at 72° C. for 3 minutes and at 4° C. for 10 minutes. After the amplification, 10 μl of the reaction solution was subjected to electrophoresis with 1.2% agarose gel. After the electrophoresis, the bands were visualized by staining the gel with ethidium bromide, and then the electrophoresis gel was photographed.

T. th. RecA [6] = target: T1, T. th. RecA; assay: PCR with ExTaq-HS polymerase, effects of primer length, Primer Sets 16-21 (Example 6); details: 0.4 mM ATP plus 0.4 μg T. th. RecA, primer base length 20 to 45 (Primer Sets 16-21)
Protocol: The PCR amplification reaction was carried out using a human genome DNA as a template and the primer sets of various lengths. The primer sets used here were Primer Sets 16, 17, 18, 19, 20 and 21 with the base lengths of 20, 25, 30, 35, 40 and 45. The same PCR reaction solutions as in Example 5 were used. Specifically, Reaction solution P was prepared by adding T. th. RecA and ATP. Reaction solution Q was prepared similarly to Reaction solution P except that ATP was not added. As a DNA polymerase, an ExTaq-HS polymerase (manufactured by Takara Bio Inc.) was used. Then, the PCR reaction was carried out under the same conditions as in Example 5, then electrophoresis and staining of the electrophoresed gel were conducted, and then photographing was conducted according to the same procedures as in Example 5.

T. th. RecA [7] = target: T1, T. th. RecA; assay: PCR with T. th. DNA polymerase, combination of T. th. RecA with ATP (Example 7); details: 35 cycles
Protocol: PCR amplification by the T. th. DNA polymerase was carried out using a human genome DNA as a template and Primer Set 1. Five kinds of PCR reaction solution were prepared as shown below. Specifically, Reaction solution R was prepared by adding T. th. RecA and ATP. Reaction solution S was prepared similarly to Reaction solution R except that ATP was not added. Reaction solution T was prepared similarly to Reaction solution R except that ATP and T. th. […] Reaction solution U was prepared similarly to Reaction solution R except that T. th. RecA and ATP were not added but a T. th. RecA storage buffer was added instead. Further, Reaction solution V was prepared similarly to Reaction solution R except that T. th. RecA was not added. The composition of each of the reaction solutions is as shown below.
The above reaction solutions were thermally denatured at 92° C. for 30 seconds. Then, amplification reaction was carried out with 35 cycles (1 cycle: at 94° C. for 15 seconds, at 55° C. for 30 seconds and at 68° C. for 90 seconds). Thereafter, the amplification reaction was completed by the final reaction cycle at 68° C. for 3 minutes and at 4° C. for 10 minutes. After the amplification, 10 μl of the reaction solution was subjected to electrophoresis with 1.2% agarose gel. […]

T. th. RecA [8] = target: T1, T. th. RecA; assay: PCR and multiplex PCR with T. th. DNA polymerase, T. th. RecA and ATP (Example 8); details: 0.4 mM ATP plus 0.4 μg T. th. RecA
Protocol: The PCR amplification reaction by the T. th. DNA polymerase was carried out using a human genome DNA as a template. The primer sets used herein were Primer Sets 22, 23, 24, 25, 26, 27, 28, 29, 30, 31, 32, 33, 1 and 2. In addition, multiplex PCR was carried out in which these primer sets were added in one reaction system and amplified. Two kinds of PCR reaction solution were prepared as shown below. Specifically, Reaction solution W was prepared by adding T. th. RecA and ATP. Reaction solution X was prepared similarly to Reaction solution W except that T. th. RecA and ATP were not added but a T. th. RecA storage buffer was added instead.
The above reaction solutions were thermally denatured at 92° C. for 30 seconds. Thereafter, the amplification reaction was carried out with 35 cycles (1 cycle: at 94° C. for 15 seconds, at 55° C. for 30 seconds and at 68° C. for 2 minutes). Thereafter, the amplification reaction was completed by the final reaction cycle at 68° C. for 3 minutes and at 4° C. for 10 minutes. After the amplification, 3 μl of the reaction solution was subjected to electrophoresis with 12.5% acrylamide gel. After the electrophoresis, the bands were visualized by staining the gel with cyber green, and then the electrophoresis gel was photographed.

Nc1ncnc2c1ncn2[C@@H]1O[C@H](COP(=O)(O)OP(=O)(O)OP(=O)(O)O)[C@@H](O)[C@H]1O [ATP, adenosine 5′-triphosphate]
non-specific amplification in PCR (agarose gel) (T. th. RecA [1]): non-specific amplification can be remarkably reduced | non-specific amplification in PCR (agarose gel) (T. th. RecA [2]): non-specific amplification can be suppressed | non-specific amplification in PCR (agarose gel) (T. th. RecA [3]): non-specific amplification was suppressed | non-specific amplification in PCR (agarose gel) (T. th. RecA [4]; 400 μM ATP alone, without T. th. RecA, Lanes 43 to 49): non-specific amplification was not suppressed | suppression of non-specific amplification, comparison among the NTP and T. th. RecA combinations (T. th. RecA [4]; 400 μM GTP, ATP, UTP or CTP plus 0.4 μg T. th. RecA): suppressed non-specific amplification the most | non-specific amplification in PCR (agarose gel) (T. th. RecA [4]; 400 μM NTP plus 0.4 μg T. th. RecA, Primer Sets 1-6 and 8, compared with T. th. RecA only): non-specific amplification can be suppressed | non-specific amplification in PCR (agarose gel) (T. th. RecA [5]): non-specific amplification can be remarkably reduced | non-specific amplification in PCR (agarose gel) (T. th. RecA [6]): non-specific amplification was remarkably suppressed | non-specific amplification in PCR (agarose gel) (T. th. RecA [7]; 0.4 mM ATP only, without T. th. RecA): production of non-specific amplification products was found | non-specific amplification in PCR (agarose gel) (T. th. RecA [7]; 0.4 mM ATP plus 0.4 μg T. th. RecA, Primer Sets 1-6 and 8): non-specific amplification was remarkably suppressed | non-specific amplification in PCR (acrylamide gel) (T. th. RecA [8]; 35 cycles, single primer sets 22-33, 1 and 2 (Lanes 1 to 14)): non-specific amplification was remarkably suppressed | specific amplification in multiplex PCR (acrylamide gel) (T. th. RecA [8]; all 14 primer sets in one reaction system (Lane 15)): the target sequences corresponding to each of the primer sets were specifically amplified
